Measurements published in ChEMBL document CHEMBL3507680, “University of Dundee, Gates Library screen for HepG2 cell viability”.

experiment: Human HepG2 cell viability assay in 384 well format; format: toxicity, cell-based; set-up: dose 125 nL, time 70.5 hour; concentration not given beside the values; conditions: HepG2 cells, read-out: Inhibition

SMILES | cytotoxicity at 70.5 h [%]
CN(C)c1cc(CNC(=O)Nc2nnc(C3CC3)s2)ccn1 | 1.07
CC1(C)CN(CC(F)(F)F)CCN1CC(=O)NC1CC1 | -6.02
O=C(NC[C@H]1OC[C@@H]2CCN(Cc3ccco3)C[C@@H]21)c1ccnnc1 | -1.68
CC(=O)Nc1ccc(C(=O)N(C)Cc2ccc(F)cc2F)s1 | -61.6
COc1cncc(-n2nc(C)c(CC(C)=O)c2C)c1 | 0.266
CC1COCCN1Cc1nc(Cc2ccccc2)no1 (centres undefined) | -8.66
Cc1nn(C)cc1C(=O)N1CCCC(n2nnc3cc(F)ccc32)C1 (centres undefined) | 11.8
NC(=O)c1cc(C2CCCN(CCOc3cccc(F)c3)C2)n[nH]1 (centres undefined) | 13
O=C(NC1CC1)[C@H]1C[C@H]2OCC[C@H]2N(Cc2ccco2)C1 | -8.44
O=C(COc1coc(CN2CCCCC2)cc1=O)Nc1ccc(Cl)cc1 | -3.76
CC(C)c1nc(CNc2nccc(CCC(F)(F)F)n2)cs1 | -8.19
Cc1cc(N(C)C)nc(C2(C)CCCNC2)n1 (centres undefined) | 18.9
Cc1nn(C)c(C)c1CCC(=O)NCc1csc(N2CCCC2)n1 | 2.01
Cn1nnc2c1C(COCC1CC1)CN(C(=O)Cc1ccsc1)C2 (centres undefined) | -0.74
Cc1nc(Cn2c(=O)cnc3ccccc32)n(C)n1 | -24.2
Cc1ccc(CN2C[C@@H]3[C@@H](C2)OCC(=O)N3Cc2ccncc2)s1 | 10.5
CC(C)(C)CN1Cc2cc3c(cc2NCCC1=O)OCO3 | 23.7
Cc1ccc(CN2CCC3(CC(C(=O)NC4CCC4)=NO3)C2)o1 (centres undefined) | -14.5
Cc1ccc(NC(=O)C2CSCN2C(=O)c2cccnc2)c(C)c1 (centres undefined) | 6.06
Cc1cnn(CCNCc2csc(-c3ccc(F)cc3)n2)c1 | 3.66
CC(C)c1nc(C2CCCN2Cc2ccno2)no1 (centres undefined) | -12
O=C(c1cccc2ccnn12)N1CCC[C@H]1CN1CCCC1 | 6.92
CCc1ncncc1C(=O)NCCNS(=O)(=O)c1ccccc1 | 13.9

SMILES | cytotoxicity at 70.5 h [%]
COc1ccc(-n2cccn2)cc1S(=O)(=O)N1C[C@H](C2CC2)[C@@H](N)C1 | -3.3
O=C(Cc1ccsc1)N1CCC[C@@H]1Cn1c(=O)oc2ccccc21 | -5.78
Cc1cc(C(=O)N2CCC(O)(Cn3ccc4ccncc43)CC2)on1 | 17.8
CC(C)COC(C)C(=O)N1CCCCC1 (centres undefined) | -3.46
COCCCN1CC2(CCCN(c3ncnc4[nH]ccc34)C2)CCC1=O (centres undefined) | -6.33
CCc1ccc(CN2CCN(C)c3ncccc3C2)o1 | 24.1
CCOc1ccccc1NC(=O)Nc1cc(N2CCCC2)ncn1 | 1.9
CCc1nnc2n1CCN(C(=O)c1ccc3cc[nH]c3c1)C2 | -4.35
CCC(NC(=O)CCCNC(=O)OC)c1cc(F)ccc1F (centres undefined) | -3.13
CN(Cc1ccco1)C(=O)CN1CCCC(Cn2cncn2)C1 (centres undefined) | -8.21
CC(C)c1nc(-c2cc(C(=O)NCCN(C)C)c3ccccn23)cs1 | -1.61
CC(C)N1CC(C(=O)NC(C)(C)CNC(=O)OC(C)(C)C)CC1=O (centres undefined) | -3.84
N#Cc1cccc(S(=O)(=O)NC(=O)COCC(F)(F)F)c1 | 0.976
COC(=O)c1cccc(S(=O)(=O)NC(=O)COC2CCCC2)c1 | -11.9
CCC(C)C(=O)NCc1ccn(-c2ccc(F)cc2)n1 (centres undefined) | 8.14
Cc1cc(CN2CCN(C(=O)C3CCC3)[C@@H]3CS(=O)(=O)C[C@@H]32)ccc1F | 1.76
COc1cccc(CCC(=O)N2CCCC(n3cc(C)cn3)C2)c1 (centres undefined) | -15.8
Fc1cnc(N2C[C@@H](OCC3CCOCC3)[C@H]3OCCC[C@H]32)nc1 | -7.94
COCCOc1ncccc1-c1noc([C@@H]2CCCN2C2CCC2)n1 | -10.3
CCC(=O)N1CCC2(CC1)COc1ccccc1S(=O)(=O)N(C)C2 | -14.6
CN1CCN(c2ccc(Cl)cc2NC(=O)c2ccco2)CC1 | 12.6
O=C(c1ccncc1)N1CCOC2(CCCN(c3nncs3)C2)C1 (centres undefined) | -0.0919
CC(CC#N)n1ccc(C(F)(F)F)n1 (centres undefined) | -0.316

SMILES | cytotoxicity at 70.5 h [%]
Cc1cncc(C(=O)N2CCCC(O)(CN(C)C)CC2)c1 (centres undefined) | 7.68
O=C(NC1CCCC1)c1cc(Sc2ncccn2)ccn1 | -13.6
CCC(=O)N1CCC2(CC1)CN(CCO)Cc1ccccc12 | 1.97
O=C(COc1ccc(Br)cc1F)Nc1cn[nH]c1 | 15.8
COc1ccc(CCCC(=O)N2C[C@H](C3CC3)[C@@H](N(C)C)C2)cc1 | -9.86
NC(=O)c1csc(C(=O)N2CCCCC2Cn2cccn2)c1 (centres undefined) | -10.3
CCOC(=O)c1n[nH]cc1-c1cncn1CCn1nc(C)c(Cl)c1C | -5.26
CNC(=O)[C@@H]1C[C@H]2CN(Cc3nccs3)C[C@H]2N1C | 6.13
O=C(NC[C@]12COC[C@H]1CN(Cc1cccc(F)c1)C2)c1ccco1 | -12.4
Cc1ccc(C(=O)N2CCO[C@H]3[C@H](OCCN(C)C)CC[C@@H]32)cn1 | -1.99
O=C(NCc1cccs1)c1nc2c(o1)CN(c1ncccn1)C2 | -6.55
OCC1(NCc2cnc(-c3ccsc3)s2)CCOCC1 | -6.13
CCOc1cccc(CNc2cnn(CC(C)C)c2CC)c1 | -7.62
O=C(CO[C@@H]1CC[C@H]2[C@H]1OCCN2CC1CCOCC1)N1CCCC1 | -0.662
COc1cc(C2SCC(=O)Nc3ccsc32)cc(OC)c1O (centres undefined) | -4.76
COc1ccc(CC(=O)NC2(C#N)CCOCC2)c(Cl)c1 | 3.22
CC(C)(C)c1noc(CN2CCN(C(=O)c3ccco3)CC2)n1 | 14.9
CC(C)c1ncc(CN2CCC(c3n[nH]cc3C(=O)N(C)C)C2)cn1 (centres undefined) | -2.3
COc1cccc(NC(=O)C2CC(=O)n3cnnc3S2)c1 (centres undefined) | 2.31
O=C(Cc1csc(-c2ncccn2)n1)N1CCN2CCCCC2C1 (centres undefined) | 7.23
CC(C(=O)N1CCN(c2ccccc2Cl)CC1)n1cncn1 (centres undefined) | 10.3
COC(=O)CCN1CCCC1c1cccc2c1OCCO2 (centres undefined) | -6.05
CCN(C(=O)c1ccc2nnc(C3CCN(C(C)=O)C3)n2c1)C(C)C (centres undefined) | -12.3

SMILES | cytotoxicity at 70.5 h [%]
CSCC(C)(O)CNc1ncccc1C(F)(F)F (centres undefined) | 1.25
O=C(CCN1C[C@H]2CC[C@@H]1CN(c1ncccn1)C2)NCc1ccco1 | 27.5
Cc1ccccc1OC1CCN(CC(=O)Nc2c(C)nn(C)c2C)CC1 | 1.35
OC1CCN(CCNc2ncc3c(n2)CCN3c2ccccc2)CC1 | -7.98
CN(C)c1ccc(C(=O)N2CCCC2c2ccc(Cl)cc2)cc1 (centres undefined) | -4.22
Cc1noc(NCc2ccc(F)cc2F)n1 | 21.8
CCc1ncc(C(=O)N2CCCC2Cn2cccn2)s1 (centres undefined) | 12.3
CC(C)CC(=O)N1CCC2(CC1)NC(=O)[C@H]1CN(C(=O)N(C)C)C[C@H]12 | -7.99
CC(C)n1ccnc1CN1CCOC(CC2CCCCC2)C1 (centres undefined) | 5.36
Cc1nccn1-c1cc(CNC(=O)COCC2CC2)ccn1 | -6.02
COc1ccc(-c2cc3nc(CCNC(=O)C4CC4)nn3cn2)cc1 | 16.8
CC(=O)N1CCC2(CC1)C(=O)N(C)c1c(F)cccc12 | 3.91
Cc1cnccc1N1CCCN(C(=O)CCc2n[nH]c(C)c2C)CC1 | 18.7
CN(C)C(=O)CN1CCOCC2(C1)CN(c1ncc(F)cn1)CCO2 (centres undefined) | -10.2
O=C(NCc1cc[nH]n1)NCC(c1ccccc1)N1CCOCC1 (centres undefined) | 8.77
Cc1nnn2c1COCC(CNCc1nccs1)C2 (centres undefined) | -10.3
Cn1cnc(S(=O)(=O)N2CCCn3cnc(CN4CCCC4)c3C2)c1 | -3.74
CCc1nnc2n1CCN(Cc1cc(Cl)c3c(c1)OCCCO3)C2 | 0.524
COCC(C)Nc1ccc(-c2nc(Cc3ccc(F)cc3)no2)cn1 (centres undefined) | 27.4
CC1COCCN1C(=O)c1cnccn1 (centres undefined) | 7.55
CCS(=O)(=O)N1CCC(c2nnc(Cn3cccn3)n2C2CC2)CC1 | -0.619
CN(CCN1CCCC1=O)CC(c1cccs1)N1CCOCC1 (centres undefined) | -11.7
c1cnc(N2CCN(CCn3ccnc3-c3ccncc3)CC2)nc1 | 12.5

SMILES | cytotoxicity at 70.5 h [%]
Fc1ccccc1CN1C[C@@H]2CN(Cc3cccnc3)CCO[C@@H]2C1 | -11.8
Cc1nc2c(C)cccc2cc1C(=O)N1CCC2(CCN(C)CC2)C1 | 3.12
CN(CCCc1nccn1C)c1nccc(N2CCC(O)C2)n1 (centres undefined) | 7.29
COCCC1(C(=O)O)CCCN(Cc2cc3c(cc2C)OCO3)C1 (centres undefined) | -2.46
FC(F)(F)c1nc(C2CCCNC2)no1 (centres undefined) | -0.742
CCN(Cc1nonc1C)C(=O)Cn1nc(C(F)(F)F)cc1C1CC1 | -5.16
CN(C)CC1CN(CCOc2cccc(C#N)c2)CCO1 (centres undefined) | 0.102
Cc1nn(C)c(N(C)C)c1CNCCCN(C(C)C)S(C)(=O)=O | 8.55
CCCc1nnc(N2CCN(c3cccc(OC)c3)C(=O)C2)o1 | 15.6
CC(O)C1CCN(C(=O)Nc2nc(-c3ccccc3)ns2)CC1 (centres undefined) | 4.55
Cc1nc(CN(C)C(=O)Nc2cccc(COC(C)C)c2)no1 | -1.56
COCCN1CCC2(CC1)CC(NC(=O)CC1CC1)c1ccccc1O2 (centres undefined) | -6.99
COc1cc(CNC(=O)Nc2nnc(C(C)C)s2)ccn1 | 1.23
Cn1cnnc1S(=O)(=O)C1CCN(S(=O)(=O)C2CC2)CC1 | -1.29
COc1nn(C)cc1C(=O)N1CCC(C)CC1 | 26.1
CC(C)COC(C)C(=O)NCc1ccccc1 (centres undefined) | -5.1
NC(=O)CCOc1ccc(NC(=O)c2ccccc2OC(F)F)cc1 | 3.32
Cn1ccnc1CN1CCN(Cc2ccc(C#N)cc2F)CC1 | -1.66
CN(C)S(=O)(=O)NCC(O)c1cc2ccccc2s1 (centres undefined) | 3.05
CN(C)C(=O)C1CN(Cc2cscn2)CCN(S(C)(=O)=O)C1 (centres undefined) | 7.94
CC(C)NC(=O)CN(C)C1CCN(c2cnc3ccccc3n2)CC1 | 20.5
CSCC(C)(O)CNS(=O)(=O)Cc1ccc(F)cc1 (centres undefined) | -11.7
